# Experimental data reported in publication PMC6345779, “Hypoculoside, a sphingoid base-like compound from Acremonium disrupts the membrane integrity of yeast cells” (Scientific Reports, 2019).
# Tests used:
# [1] = test system: Candida albicans strain SC5314; assay: Broth microdilution growth inhibition of Candida albicans (CLSI guidelines, OD600 after 24 h); format: cell-based; conditions: strain SC5314, OD600 nm after 24 hours, read-out: IC50 for inhibition of growth of C. albicans cells
# Method: Figure 2 Hypoculoside has antifungal activity. (A) Workflow used in the purification and analysis of hypoculoside from Acremonium sp. F2434. (B) Structure of hypoculoside (8) and its aglycone derivative hypoculine (9). (C) Logarithmically growing Candida albicans cells were exposed to hypoculoside and amphotericin B at various concentrations in triplicates in a 96-well microplate. Growth of the cells was quantified by recording the absorbance at 600 nm after 24 hours. Growth (normalized with respect to DMSO-treated cells) is plotted against log of concentration of the compound. A picture of the microplate after 24 hours of incubation at 30 °C is shown in Supplementary Fig. S2A. (D) Effect of hypoculoside on the growth of Saccharomyces cerevisiae cells grown in YPD medium was analyzed in the similar way as for Candida albicans described above in C.
# We evaluated the potency of hypoculoside by examining its effect on the growth of Candida albicans strain (SC5314) using the Clinical and Laboratory Standards Institute (CLSI) guidelines. We used the well-known antifungal amphotericin B as a positive control. We exposed logarithmically growing Candida albicans cells to hypoculoside and amphotericin B at various concentrations and monitored the growth by recording the OD600 nm after 24 hours. […]
# [2] = test system: Saccharomyces cerevisiae diploid wild-type strain (BY4743); assay: Growth inhibition of wild type Saccharomyces cerevisiae in YPD medium (96-well, OD600); format: cell-based; conditions: for concentration that completely inhibited the growth of wild type yeast cells: 24 hours at 30 °C (Fig. 5B); for inhibitory concentration relative to inhibitory concentration of hypoculoside: wild type yeast cells, higher than hypoculoside
# Method: (§1) Figure 5 Structure-activity studies of hypoculoside. (A) Wild type strain (BY4743), vps35Δ, pep8Δ, vps20Δ, vps27Δ and vps36Δ strains were grown in YPD medium in the presence of hypoculoside or hypoculine at the indicated concentrations. Normalized growth at the different concentrations of hypoculoside and hypoculine tested after 24 hours of incubation at 30 °C is plotted for each strain. (B) Wild type strain (BY4743), vps35Δ, pep8Δ, vps20Δ, vps27Δ and vps36Δ strains were grown in YPD medium in the presence of hypoculoside or phytosphingosine or dihydrosphingosine at the indicated concentrations. Normalized growth at the different concentrations of hypoculoside, phytosphingosine and dihydrosphingosine tested after 24 hours of incubation at 30 °C is plotted for each strain.
# Susceptibility of Candida albicans strain SC5314 to hypoculoside and amphotericin B was determined by a broth microdilution assay using Clinical Laboratory Standards Institute (CLSI) guidelines. Cells grown to exponential phase in YPD medium (1% Yeast extract, 2% Bacto peptone and 2% glucose) were harvested, washed and resuspended in RPMI 1640 medium at a density of 2×10^3 cells/mL. RPMI 1640 medium with L-glutamine without sodium bicarbonate (Sigma) was buffered with 0.165 M morpholinepropanesulfonic acid (MOPS) to a pH of 7.0. Two-fold dilutions of hypoculoside and amphotericin B were prepared such that final concentration of DMSO was 1% in all cultures. Cell suspension was distributed in microtiter plate (200 µL/well) and incubated at 35 °C with 220 rpm for 24 h. The Saccharomyces cerevisiae diploid wild-type strain (BY4743) was used for determining the Inhibitory Concentration (IC) of hypoculoside. Frozen yeast cells were allowed to recover on YPD agar plates and grown in YPD medium for nine generations (OD600 nm ≤ 2). Cells were diluted to OD600 nm of 0.0625 in YPD medium. 200 μL of the diluted yeast culture was transferred into the 96-well microtiter plate having 2-fold serially diluted concentrations of hypoculoside. Cells were incubated in a microplate reader for 16–24 hours at 30 °C with shaking. IC of hypoculoside was computed by comparing the growth of treated versus control cells.
# [3] = test system: vps35Δ, pep8Δ, vps20Δ, vps27Δ and vps36Δ strains; assay: Single-mutant sensitivity growth assay of deletion strains in YPD medium; format: cell-based, Saccharomyces cerevisiae; conditions: for growth of the 5 hypoculoside-sensitive mutants compared with wild type strain: 20 µM, vps35, pep8, vps20, vps27, vps36
# Method: Figure 3 Homozygous profiling of hypoculoside in Saccharomyces cerevisiae. (A) logFC (Fitness Coefficient) was plotted against P-value for the 3702 mutants that were analyzed by HOP. The more negative the logFC value of a mutant, more sensitive is the mutant to hypoculoside. Mutants that have logFC < −0.5 and P-value < 0.05 are indicated by red dots and the remaining strains are indicated as blue dots. For the sake of clarity, gene names of only a subset of the top hits are indicated in the plot. (B) Wild type strain BY4743 and 24 deletion strains that were sensitive to hypoculoside in the HOP assay, were grown in the YPD medium in the presence of either DMSO or hypoculoside at different concentrations (0, 0.6, 1.3, 2.7 and 5.5 µM). Normalized growth at the different concentrations of hypoculoside tested after 24 hours of incubation at 30 °C is plotted for each strain.
# To test the validity of our HOP data, we first identified 336 ‘hypoculoside-sensitive’ mutants (Supplementary Table S1) that had at least a 1.4-fold inhibitory effect on their growth rate (i.e. logFC ≤ −0.5) with a P-value ≤ 0.05. From the list of 336 mutants, we chose 24 mutants that represent different Gene Ontology categories (see below) and tested their sensitivity to hypoculoside. Eighteen of the total 24 mutants were sensitive to hypoculoside confirming the HOP data (Fig. 3B). We also tested mutants that were predicted to be resistant to hypoculoside (positive logFC ≥ 0.5 and P-value ≤ 0.05). But none of them were resistant to hypoculoside in comparison to wild type strain in the single-mutant sensitivity assays (data not shown).
# as §1
# [4] = test system: vacuoles of wild type yeast cells; assay: FM 4-64 fluorescence microscopy of vacuolar structure; format: cell-based, Saccharomyces cerevisiae; conditions: 11.6 µM, FM 4-64 pre-labelled wild type cells, N = 100 cells
# Method: As several vacuolar transport mutants were sensitive to hypoculoside (Fig. 3), we examined the effect of hypoculoside on the vacuolar structure of yeast cells. We incubated wild type yeast cells with FM 4–64, a dye that stains the vacuolar membranes, for 1 hour. We then washed off the excess FM 4–64 from the medium and transferred the cells into fresh medium with either hypoculoside or hypoculine or DMSO. […] In contrast, about 50% of 11.6 µM hypoculoside-treated cells had defective vacuoles (Fig. 7B). However, only 3% of 11.6 µM hypoculine-treated cells had defective vacuoles. Thus, the effect of hypoculoside and hypoculine on vacuolar structure correlates with their inhibitory activities.
# Figure 7 Hypoculoside but not hypoculine disrupts the vacuolar structure of yeast cells. Wild type yeast cells containing vacuoles pre-labelled with the lipophilic dye FM 4-64 were exposed to either DMSO or hypoculoside or hypoculine at the indicated concentrations for 1 hour. Effects of the compounds on vacuolar morphology was analyzed by fluorescence microscopy. […] (B) Quantification of the various categories for cells treated with either DMSO or hypoculoside or hypoculine is plotted (N = 100 cells). […]
# Labeling of yeast cells with FM4-64 (Invitrogen) was done as previously reported. […] The images were acquired using an inverted fluorescence microscope ZEISS LSM 5 LIVE (Carl Zeiss, Oberkochen, Germany).
# BY4743 cells = assay: Propidium iodide (PI)-staining assay of plasma membrane integrity; format: cell-based, Saccharomyces cerevisiae; conditions: 1.8, 3.5 and 5.3 µM, 30′ and 2 hours
# Method: Figure 8 Hypoculoside but not hypoculine disrupts the membrane integrity of yeast cells. (A) Wild type yeast cells pre-treated with either DMSO or hypoculoside (5.4 μM) were exposed to FM 4-64FX. Uptake of FM 4-64FX after 0′, 30′ and 120′ was analyzed by fluorescence microscopy of fixed cells. (B) Yeast cells were incubated with either DMSO or hypoculoside or hypoculine at different concentrations (1.8, 3.5 and 5.3 µM) for 30′ and 2 hours. They were then treated with propidium iodide (PI) and percentage of PI-staining cells was assayed by fluorescence microscopy. Representative images of cells visualized by bright field and fluorescence microscopy are shown along with quantification of PI-staining cells (N = 100 cells) in (C).
# We then tested whether hypoculoside causes membrane leakage using the membrane impermeant dye propidium iodide (PI). […] We then incubated the cells with PI and visualized its uptake by fluorescence microscopy. […]
# BY4743 cells (OD600 nm ≈ 1) were exposed to various concentrations of hypoculoside or hypoculine or DMSO in YPD for 30′ and 2 hours. […] PI uptake by cells was assayed by bright-field and fluorescence microscopy [Excitation/Emission (nm): 535/617] and the percentage of PI-staining cells (N ≥ 100) was calculated.
# Staphylococcus aureus = test system: Staphylococcus aureus; design: method as in PMID 23128426; conditions: also disrupt cell membrane; cited from earlier work
# [5] = test system: Wild type strain (BY4743); assay: Rescue of myriocin-induced growth inhibition in yeast; format: cell-based, Saccharomyces cerevisiae; conditions: for rescue of myriocin-induced inhibition: added at 10 μM
# Method: Myriocin is an inhibitor of Serine palmitoyltransferase (SPT), which catalyzes the first step in the synthesis of sphingolipid biosynthesis. Addition of PHS or DHS can rescue inhibition caused by myriocin[28]. We tested whether hypoculoside can rescue the toxicity of myriocin–treated cells.
# Wild type strain (BY4743) was grown in YPD medium containing different concentrations of myriocin and either phytosphingosine (PHS) or dihydrosphingosine (DHS) or hypoculoside (HYP) at the indicated concentrations. Normalized growth at the different concentrations after 24 hours of incubation at 30 °C is plotted for the various cultures.
# cancer cell lines = test system: cancer cell lines; design: method as in PMID 18343365; conditions: cited from earlier work
# fungi = test system: fungi; design: method as in PMID 10654417; conditions: cited from earlier work
smiles,measurement,setting,value
"C[C@@H]1[C@H](O)[C@@H](C)/C=C/C=C/C=C/C=C/C=C/C=C/C=C/[C@H](O[C@@H]2O[C@H](C)[C@@H](O)[C@H](N)[C@@H]2O)C[C@@H]2O[C@](O)(C[C@@H](O)C[C@@H](O)[C@H](O)CC[C@@H](O)C[C@@H](O)CC(=O)O[C@H]1C)C[C@H](O)[C@H]2C(=O)O [amphotericin B, reference compound]",IC50,[1],32 nM
CC(N)C(O)CCCCCCCCCCCCCCCCCCC(O)C(C)O (stereo not shown) [hypoculine],concentration that inhibited the growth of wild type cells,"[2]; BY4743, YPD, 24 hours at 30 °C (Fig. 5A)",> 200 µM
same,concentration at which mutants still displayed significant growth,"[3]; mutants except for pep8 and vps35 (vps20, vps27, vps36), YPD, 24 hours at 30 °C",> 200 µM
same,cells with defective vacuoles,[4],3%
same,cells with PI staining,BY4743 cells,less than 10%
"CCCCCCCCCCCCC/C=C/[C@@H](O)[C@@H](N)CO [sphingosine, (2S,3R,4E)-2-amino-4-octadecen-1,3-diol]",growth inhibition of Staphylococcus aureus,Staphylococcus aureus,inhibit the growth
CCCCCCC(=O)CCCCCC/C=C/C[C@@H](O)[C@H](O)[C@@](N)(CO)C(=O)O [Myriocin],concentration that inhibited the growth of yeast cells,"[5]; wild type BY4743, YPD, 24 hours at 30 °C",3.11 µM
"CCCCCCCCCCCCCCC[C@@H](O)[C@@H](N)CO [DHS, dihydrosphingosine, reference compound]",concentration that completely inhibited the growth of wild type yeast cells,"[2]; BY4743, YPD",40 µM
same,inhibitory concentration relative to inhibitory concentration of hypoculoside,[2],about 4 fold
same,growth of the 5 hypoculoside-sensitive mutants compared with wild type strain,[3],lower in comparison to wild type strain
same,rescue of myriocin-induced inhibition,[5],completely rescued
same,growth inhibition of Staphylococcus aureus,Staphylococcus aureus,inhibit the growth
"CCCCCCCCCCCCCCC[C@@H](O)[C@H](C)N [spisulosine, 1-deoxysphinganine]",activity against cancer cell lines,cancer cell lines,potent activity
C[C@@H](N)[C@H](O)CCCCCCCCCCCCCCC(=O)CCCCCCC[C@@H](O)[C@@H](N)CO [Oceanin],toxicity to fungi compared with oceanapiside,fungi,considerably more toxic to fungi
"CCCCCCCCCCCCCC[C@@H](O)[C@@H](O)[C@@H](N)CO [PHS, phytosphingosine, reference compound]",concentration that completely inhibited the growth of wild type yeast cells,"[2]; BY4743, YPD",40 µM
same,inhibitory concentration relative to inhibitory concentration of hypoculoside,[2],about 4 fold
same,growth of the 5 hypoculoside-sensitive mutants compared with wild type strain,[3],lower in comparison to wild type strain
same,rescue of myriocin-induced inhibition,[5],completely rescued
same,growth inhibition of Staphylococcus aureus,Staphylococcus aureus,inhibit the growth
